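Each compound was tested at five concentrations against cells in 96-well plates for 48 hours. GI50 is the concentration that inhibits growth by half. TGI: total growth inhibition.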
How the values were obtained:
Assay in all cases: growth of human tumour cells (NCI), 48 h
A498 renal = system: A498 renal
COLO 205 colon = system: COLO 205 colon
HT29 colon = system: HT29 colon
K-562 leukemia = system: K-562 leukemia
SNB-19 CNS = system: SNB-19 CNS
TK-10 renal = system: TK-10 renal
OVCAR-4 ovarian = system: OVCAR-4 ovarian
SK-MEL-2 melanoma = system: SK-MEL-2 melanoma
HS 578T breast = system: HS 578T breast
NCI/ADR-RES ovarian = system: NCI/ADR-RES ovarian

| Structure (SMILES) | TGI (A498 renal) [µM] | TGI (COLO 205 colon) [µM] | TGI (HT29 colon) [µM] | TGI (K-562 leukemia) [µM] | TGI (SNB-19 CNS) [µM] | TGI (TK-10 renal) [µM] | TGI (OVCAR-4 ovarian) [µM] | TGI (SK-MEL-2 melanoma) [µM] | TGI (HS 578T breast) [µM] | TGI (NCI/ADR-RES ovarian) [µM] | GI50 (COLO 205 colon) [µM] | GI50 (HT29 colon) [µM] | GI50 (K-562 leukemia) [µM] | GI50 (OVCAR-4 ovarian) [µM] | GI50 (SK-MEL-2 melanoma) [µM] | GI50 (SNB-19 CNS) [µM] | GI50 (TK-10 renal) [µM] | GI50 (A498 renal) [µM] | GI50 (NCI/ADR-RES ovarian) [µM] | GI50 (HS 578T breast) [µM] |
| --- | --- | --- | --- | --- | --- | --- | --- | --- | --- | --- | --- | --- | --- | --- | --- | --- | --- | --- | --- | --- |
| Cc1cccc(C)c1NC(=O)CCC(=O)NNC(=O)c1cc(O)c2ccccc2c1 | 3.78 | 49 | > 100 | > 100 | > 100 | > 100 | – | – | – | – | – | – | – | – | – | – | – | – | – | – |
| Cc1c(/C=C2\CC/C(=C\c3[nH]c(C(=O)OC(C)(C)C)c(C)c3C)C2=O)[nH]c(C(=O)OC(C)(C)C)c1C | > 100 | > 100 | > 100 | > 100 | > 100 | > 100 | > 100 | > 100 | – | – | – | – | – | – | – | – | – | – | – | – |
| O=C(/C=C/c1ccc(OCCCCCCCCCCOc2ccc(/C=C/C(=O)c3ccc(Cl)cc3)cc2)cc1)c1ccc(Cl)cc1 | > 100 | > 100 | > 100 | > 100 | > 100 | > 100 | – | > 100 | – | – | – | – | – | – | – | – | – | – | – | – |
| CN(C)c1c(Cl)c(=O)oc2c1ccc1nc(-c3ccccc3)sc12 | > 100 | > 100 | > 100 | > 100 | > 100 | > 100 | > 100 | – | > 100 | > 100 | – | – | – | – | – | – | – | – | – | – |
| CCCCN(CC)C(=O)C(=O)C1C(=O)Nc2ccccc2S1=O (stereo not drawn) | > 100 | > 100 | > 100 | > 100 | > 100 | > 100 | > 100 | > 100 | – | – | – | – | – | – | – | – | – | – | – | – |
| COC(=O)OCC1OC(N2C(=O)NC(=O)C(I)C2N=[N+]=[N-])CC1OC(=O)OC (stereo not drawn) | – | > 100 | > 100 | > 100 | > 100 | > 100 | > 100 | – | – | – | – | – | – | – | – | – | – | – | – | – |
| N#C/C(=C\c1ccc(CP(=O)(O)O)cc1)C(N)=O | > 100 | > 100 | > 100 | > 100 | > 100 | > 100 | > 100 | > 100 | – | – | – | – | – | – | – | – | – | – | – | – |
| COc1cc2c(cc1O)[C@H](C)C(c1ccc(Cl)cc1)O2 (stereo partly drawn) | > 100 | > 100 | > 100 | 51.7 | > 100 | 78.8 | > 100 | 56 | – | – | – | – | – | – | – | – | – | – | – | – |
| OCC(O)CC[CH2][Sn]([c]1ccccc1)([c]1ccccc1)[c]1ccccc1 (stereo not drawn) | – | 35.3 | 33.4 | 23.8 | 33.7 | 31.2 | 32.2 | 29 | – | – | 19.5 | 19 | 8.59 | 16.5 | 15.3 | 19.4 | 17 | – | – | – |
| O=c1cc2n(c(=O)[nH]1)C1OC(C(O)C1O)[C@@H]2CCO (stereo partly drawn) | > 100 | – | > 100 | > 100 | > 100 | > 100 | > 100 | > 100 | – | – | – | – | – | – | – | – | – | – | – | – |
| COc1cc2c(-c3nc4cc(Cl)c(F)cc4s3)cc(=O)oc2c(C)c1OC | 2.87 | 3.32 | – | – | – | 3.47 | 3.16 | 3.9 | – | – | 1.66 | – | – | 1.65 | 2.07 | – | 1.96 | 1.5 | – | – |
| O=c1/c(=C/c2cccc3ccccc23)sc2nc3ccccc3n12 | > 100 | > 100 | > 100 | > 100 | > 100 | > 100 | > 100 | > 100 | – | – | – | – | – | – | – | – | – | – | – | – |
| Nc1nc2ncn(CCO)c2c(=O)[nH]1 | – | > 100 | > 100 | – | > 100 | > 100 | – | > 100 | – | – | – | – | – | – | – | – | – | – | – | – |
| COc1cc(-c2c3c(cn2S(=O)(=O)c2ccccc2)-c2nc(N)sc2CC3)cc(OC)c1OC | 22.3 | 3.53 | 3.44 | > 100 | > 100 | 30.1 | 32.3 | 12.7 | – | > 100 | 1.14 | 0.384 | 0.431 | 2.04 | 0.596 | 11 | 5.2 | 0.56 | 0.612 | – |
| O=C1c2ccn(CCCCN3CCOCC3)c2C(=O)c2c1c(O)c1ccccc1c2O | > 100 | 34 | 97 | 4.53 | 60.4 | 7.7 | > 100 | – | > 100 | 23.8 | 5.69 | 3.75 | 2 | 30.3 | – | 19.6 | 1.56 | 19.3 | 4.44 | 29.8 |
| COc1ccc2c(c1)Oc1nc(N)c(C#N)c(N)c1C2Sc1ccc(SC)cc1 (stereo not drawn) | 3.3 | 3.6 | 4.36 | 10.3 | 3.18 | 3.17 | 3.07 | 3.28 | – | 6.05 | 1.85 | 2.2 | 2.71 | 1.64 | 1.7 | 1.77 | 1.77 | 1.77 | 2.42 | – |

Source: PubChem BioAssay (NCI)
